Earlier results in patent publication US10478399B2, “Modified release tablet composition comprising mirabegron” (SYNTHON B.V., priority 2017, dated 2019).

How the values were obtained:
[1] = neutral to acidic pH
[2] = presence of food in the GI tract

Nc1nc(CC(=O)Nc2ccc(CCNC[C@H](O)c3ccccc3)cc2)cs1 [Mirabegron, (R)-2-(2-aminothiazol-4-yl)-4′-[2-[(2-hydroxy-2-phenylethyl)amino]ethyl]acetic acid anilide]
permeability (BCS): low permeability
solubility (BCS): high solubility
solubility in water [1]: soluble in water between neutral to acidic pH
effect of food on bioavailability [2]: affected by the presence of food
